{"source": "patent US20080318792A1", "about": "“Extension of pollination period” (priority 2007, published 2008)", "key": {"[1]": {"system": "corn inbred lines B91 and B95", "assay": "Field emergence and anthesis of inbred corn seed treated with ABA", "type": "in vivo", "experimental": "Seed of inbred lines B91 and B95 was obtained from Iowa State University. These inbreds are from the BSCB1 heterotic group, and are representative of many male parents used in hybrid corn seed production. ABA in the form of the ammonium salt was applied at rates of 0, 25, 50 and 100 g/cwt (as free acid). Application was performed as described under Example 2 above, except the CF-Clear and Color Coat Red (Becker Underwood) were applied at 0.5 oz/cwt, and Maxim XL (Syngenta) was applied at 0.334 oz/cwt, using a slurry rate of 15 oz/cwt. The seed samples were mechanically planted in small plots of one five hundredth acre each at Woodstock, Ill., Stoughton, Wis. and Winnebago, Ill. Three plots of each treatment were planted at each location. Standard cultural practices for corn production were used. The plots were examined daily, and seedling emergence counted in each plot every day or two during the month after planting. Data were analyzed as described under Example 2 above."}, "[2]": {"system": "Hughes 1883 hybrid corn seed", "assay": "Soil germination/emergence of corn seed treated with different forms of ABA in slurry", "type": "in vivo", "conditions": "for delay: treatments with ABA vs control; for Final emergence / QR / T50: 25 g/cwt as free acid", "experimental": "Three forms of ABA were evaluated in this experiment 1) free acid, 2) ammonium salt, and 3) sodium salt. The cation is referred to as the “counter-ion” below. […] The treatments were made up in 3 ml samples of experimental aqueous seed treatment slurry. All of the seed treatment slurry samples contained CF-Clear film-forming agent and Colorcoat Red (Becker Underwood), each at 1 oz/cwt, and 0.167 oz/cwt Maxim XL fungicide (Syngenta). The slurry application volume was 20 oz/cwt (cwt=100 lbs of seed).\nOne hundred gram samples of Hughes 1883 hybrid corn seed were treated with the experimental slurries using a Hege 11 seed treater with a six-inch bowl.\nThe seed was planted in plastic boxes containing 1 kg of typical agricultural silt loam. Fifty seeds were planted 3 cm deep in each plastic box, and the soil in the box was adjusted to 21% soil moisture (wet-weight basis). Two replications of the experiment were incubated under constant light in a 25° C. chamber and two replications incubated under constant light in an 18° C. chamber. The boxes were watered up to the correct weight daily, and checked for emergence. Daily counts of seedlings were continued until emergence ceased. The final count of emerged seedlings was expressed as a percentage of the 50 seeds planted (GERM).\nThe daily counts were converted to proportions of the final germination of the box, and a Gompertz curve was fitted to the data from each box using SAS Proc NLIN. From the parameters of the model, median germination time (T50) and quartile range (QR) were estimated for each box. Analysis of variance was performed and means calculated for each of the three responses (GERM, T50, QR)."}, "[3]": {"conditions": "Stoughton, inbred B91, ABA (ammonium salt) 25 g/cwt as free acid"}, "[4]": {"conditions": "Stoughton, inbred B91, ABA (ammonium salt) 50 g/cwt as free acid"}, "[5]": {"conditions": "Stoughton, inbred B91, ABA (ammonium salt) 100 g/cwt as free acid"}, "[6]": {"conditions": "Stoughton, inbred B95, ABA (ammonium salt) 25 g/cwt as free acid"}, "[7]": {"conditions": "Stoughton, inbred B95, ABA (ammonium salt) 50 g/cwt as free acid"}, "[8]": {"conditions": "Stoughton, inbred B95, ABA (ammonium salt) 100 g/cwt as free acid"}, "[9]": {"conditions": "Winnebago, inbred B91, ABA (ammonium salt) 25 g/cwt as free acid"}, "[10]": {"conditions": "Winnebago, inbred B91, ABA (ammonium salt) 50 g/cwt as free acid"}, "[11]": {"conditions": "Winnebago, inbred B91, ABA (ammonium salt) 100 g/cwt as free acid"}, "[12]": {"conditions": "Winnebago, inbred B95, ABA (ammonium salt) 25 g/cwt as free acid"}, "[13]": {"conditions": "Winnebago, inbred B95, ABA (ammonium salt) 50 g/cwt as free acid"}, "[14]": {"conditions": "Winnebago, inbred B95, ABA (ammonium salt) 100 g/cwt as free acid"}, "[15]": {"conditions": "Woodstock, inbred B91, ABA (ammonium salt) 25 g/cwt as free acid"}, "[16]": {"conditions": "Woodstock, inbred B91, ABA (ammonium salt) 50 g/cwt as free acid"}, "[17]": {"conditions": "Woodstock, inbred B91, ABA (ammonium salt) 100 g/cwt as free acid"}, "[18]": {"conditions": "Woodstock, inbred B95, ABA (ammonium salt) 25 g/cwt as free acid"}, "[19]": {"conditions": "Woodstock, inbred B95, ABA (ammonium salt) 50 g/cwt as free acid"}, "[20]": {"conditions": "Woodstock, inbred B95, ABA (ammonium salt) 100 g/cwt as free acid"}}, "data": [{"compound": "CC1=CC(=O)CC(C)(C)[C@@]1(O)/C=C/C(C)=C\\C(=O)O", "note": "[ABA, S-(+)-abscisic acid]", "values": [{"measurement": "effect on anthesis", "setting": "[1]; Stoughton and Winnebago, ABA 25-100 g/cwt", "result": "progressively delayed anthesis"}, {"measurement": "Final emergence", "setting": "[1]; [3]", "result": 96.2, "unit": "%"}, {"measurement": "Median time to anthesis", "setting": "[1]; [3]", "result": 79.2, "unit": "days"}, {"measurement": "Median time to emergence", "setting": "[1]; [3]", "result": 11.9, "unit": "days"}, {"measurement": "Final emergence", "setting": "[1]; [4]", "result": 95.0, "unit": "%"}, {"measurement": "Median time to anthesis", "setting": "[1]; [4]", "result": 80.1, "unit": "days"}, {"measurement": "Median time to emergence", "setting": "[1]; [4]", "result": 12.6, "unit": "days"}, {"measurement": "Final emergence", "setting": "[1]; [5]", "result": 94.3, "unit": "%"}, {"measurement": "Median time to anthesis", "setting": "[1]; [5]", "result": 79.8, "unit": "days"}, {"measurement": "Median time to emergence", "setting": "[1]; [5]", "result": 14.1, "unit": "days"}, {"measurement": "Final emergence", "setting": "[1]; [6]", "result": 98.1, "unit": "%"}, {"measurement": "Median time to anthesis", "setting": "[1]; [6]", "result": 81.8, "unit": "days"}, {"measurement": "Median time to emergence", "setting": "[1]; [6]", "result": 12.5, "unit": "days"}, {"measurement": "Final emergence", "setting": "[1]; [7]", "result": 98.1, "unit": "%"}, {"measurement": "Median time to anthesis", "setting": "[1]; [7]", "result": 82.4, "unit": "days"}, {"measurement": "Median time to emergence", "setting": "[1]; [7]", "result": 14.1, "unit": "days"}, {"measurement": "Final emergence", "setting": "[1]; [8]", "result": 99.0, "unit": "%"}, {"measurement": "Median time to anthesis", "setting": "[1]; [8]", "result": 81.3, "unit": "days"}, {"measurement": "Median time to emergence", "setting": "[1]; [8]", "result": 14.3, "unit": "days"}, {"measurement": "Final emergence", "setting": "[1]; [9]", "result": 98.5, "unit": "%"}, {"measurement": "Median time to anthesis", "setting": "[1]; [9]", "result": 74.4, "unit": "days"}, {"measurement": "Median time to emergence", "setting": "[1]; [9]", "result": 8.8, "unit": "days"}, {"measurement": "Final emergence", "setting": "[1]; [10]", "result": 96.4, "unit": "%"}, {"measurement": "Median time to anthesis", "setting": "[1]; [10]", "result": 75.1, "unit": "days"}, {"measurement": "Median time to emergence", "setting": "[1]; [10]", "result": 9.7, "unit": "days"}, {"measurement": "Final emergence", "setting": "[1]; [11]", "result": 94.4, "unit": "%"}, {"measurement": "Median time to anthesis", "setting": "[1]; [11]", "result": 76.4, "unit": "days"}, {"measurement": "Median time to emergence", "setting": "[1]; [11]", "result": 11.5, "unit": "days"}, {"measurement": "Final emergence", "setting": "[1]; [12]", "result": 94.8, "unit": "%"}, {"measurement": "Median time to anthesis", "setting": "[1]; [12]", "result": 79.8, "unit": "days"}, {"measurement": "Median time to emergence", "setting": "[1]; [12]", "result": 10.3, "unit": "days"}, {"measurement": "Final emergence", "setting": "[1]; [13]", "result": 95.0, "unit": "%"}, {"measurement": "Median time to anthesis", "setting": "[1]; [13]", "result": 79.5, "unit": "days"}, {"measurement": "Median time to emergence", "setting": "[1]; [13]", "result": 11.3, "unit": "days"}, {"measurement": "Final emergence", "setting": "[1]; [14]", "result": 89.8, "unit": "%"}, {"measurement": "Median time to anthesis", "setting": "[1]; [14]", "result": 80.8, "unit": "days"}, {"measurement": "Median time to emergence", "setting": "[1]; [14]", "result": 12.7, "unit": "days"}, {"measurement": "Final emergence", "setting": "[1]; [15]", "result": 99.0, "unit": "%"}, {"measurement": "Median time to emergence", "setting": "[1]; [15]", "result": 11.4, "unit": "days"}, {"measurement": "Final emergence", "setting": "[1]; [16]", "result": 94.5, "unit": "%"}, {"measurement": "Median time to emergence", "setting": "[1]; [16]", "result": 13.7, "unit": "days"}, {"measurement": "Final emergence", "setting": "[1]; [17]", "result": 92.0, "unit": "%"}, {"measurement": "Median time to emergence", "setting": "[1]; [17]", "result": 14.3, "unit": "days"}, {"measurement": "Final emergence", "setting": "[1]; [18]", "result": 94.8, "unit": "%"}, {"measurement": "Median time to emergence", "setting": "[1]; [18]", "result": 13.8, "unit": "days"}, {"measurement": "Final emergence", "setting": "[1]; [19]", "result": 96.8, "unit": "%"}, {"measurement": "Median time to emergence", "setting": "[1]; [19]", "result": 15.3, "unit": "days"}, {"measurement": "Final emergence", "setting": "[1]; [20]", "result": 89.6, "unit": "%"}, {"measurement": "Median time to emergence", "setting": "[1]; [20]", "result": 18.9, "unit": "days"}, {"measurement": "effect on final stand", "setting": "[1]; any of the locations", "result": "did not significantly reduce final stand"}, {"measurement": "effect on emergence from the soil", "setting": "[1]; every location, ABA 25-100 g/cwt", "result": "progressive and significant delay in emergence"}, {"measurement": "delay as a fraction of the germination time of the control at the same temperature", "setting": "[2]; 18 and 25° C.", "result": "roughly doubling the time to emergence"}, {"measurement": "delay", "setting": "[2]; 18° C.", "result": 5.8, "unit": "days"}, {"measurement": "Final emergence", "setting": "[2]; soil 18° C.", "result": 97, "unit": "%"}, {"measurement": "QR", "setting": "[2]; soil 18° C.", "result": 2.96, "unit": "days"}, {"measurement": "T50", "setting": "[2]; soil 18° C.", "result": 11.4, "unit": "days"}, {"measurement": "Final emergence", "setting": "[2]; soil 25° C.", "result": 96, "unit": "%"}, {"measurement": "QR", "setting": "[2]; soil 25° C.", "result": 1.32, "unit": "days"}, {"measurement": "T50", "setting": "[2]; soil 25° C.", "result": 7.7, "unit": "days"}, {"measurement": "delay", "setting": "[2]; 25° C.", "result": 4.4, "unit": "days"}, {"measurement": "median-time-to-germination", "setting": "[2]; regardless of counter-ion, 18 and 25° C., p<0.0001", "result": "increased"}, {"measurement": "Quartile range", "setting": "[2]; regardless of counter-ion, 18 and 25° C., p<0.0002", "result": "increased"}]}]}
